In ChEMBL document CHEMBL3751799, “Fluorinated matrix metalloproteinases inhibitors--Phosphonate based potential probes for positron emission tomography” (Bioorg Med Chem, 2016):
The source made the active and inactive calls. The calls are words filed in the database; no cut-off is given here.

Key:
Neutrophil collagenase [1] = biological target: T1, Neutrophil collagenase (Homo sapiens, UniProt P22894); assay: Inhibition of MMP8 (unknown origin) up to 100 uM using (7-methoxycoumarin-4-yl) acetyl pro-Leu-Gly-Leu-[3-(2,4-dinitrophenyl)-L-2,3-diamino-propionyl]-Ala-Arg-NH2 as substrate preincubated for 30 mins followed by substrate addition by microplate reader analysis
Target sequence in this assay (P22894 101-467 limits assumed): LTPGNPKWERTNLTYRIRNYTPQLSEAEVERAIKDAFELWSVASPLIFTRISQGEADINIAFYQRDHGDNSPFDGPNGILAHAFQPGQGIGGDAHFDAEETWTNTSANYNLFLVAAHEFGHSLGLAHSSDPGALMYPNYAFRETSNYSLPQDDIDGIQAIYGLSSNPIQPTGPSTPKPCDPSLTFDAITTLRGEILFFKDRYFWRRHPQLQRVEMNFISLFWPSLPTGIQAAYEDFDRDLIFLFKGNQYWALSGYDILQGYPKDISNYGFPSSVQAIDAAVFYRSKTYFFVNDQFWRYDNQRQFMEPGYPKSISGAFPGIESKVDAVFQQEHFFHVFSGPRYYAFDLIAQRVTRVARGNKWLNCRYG

Collagenase 3 [2] = biological target: T2, Collagenase 3 (Homo sapiens, UniProt P45452); assay: Inhibition of MMP13 (unknown origin) up to 100 uM using (7-methoxycoumarin-4-yl) acetyl pro-Leu-Gly-Leu-[3-(2,4-dinitrophenyl)-L-2,3-diamino-propionyl]-Ala-Arg-NH2 as substrate preincubated for 30 mins followed by substrate addition by microplate reader analysis
[3] = biological target: T3, 72 kDa type IV collagenase (Homo sapiens, UniProt P08253); assay: Inhibition of human MMP2 up to 100 uM using (7-methoxycoumarin-4-yl) acetyl pro-Leu-Gly-Leu-[3-(2,4-dinitrophenyl)-L-2,3-diamino-propionyl]-Ala-Arg-NH2 as substrate preincubated for 30 mins followed by substrate addition by microplate reader analysis
Target sequence in this assay (P08253 110-660 limits assumed): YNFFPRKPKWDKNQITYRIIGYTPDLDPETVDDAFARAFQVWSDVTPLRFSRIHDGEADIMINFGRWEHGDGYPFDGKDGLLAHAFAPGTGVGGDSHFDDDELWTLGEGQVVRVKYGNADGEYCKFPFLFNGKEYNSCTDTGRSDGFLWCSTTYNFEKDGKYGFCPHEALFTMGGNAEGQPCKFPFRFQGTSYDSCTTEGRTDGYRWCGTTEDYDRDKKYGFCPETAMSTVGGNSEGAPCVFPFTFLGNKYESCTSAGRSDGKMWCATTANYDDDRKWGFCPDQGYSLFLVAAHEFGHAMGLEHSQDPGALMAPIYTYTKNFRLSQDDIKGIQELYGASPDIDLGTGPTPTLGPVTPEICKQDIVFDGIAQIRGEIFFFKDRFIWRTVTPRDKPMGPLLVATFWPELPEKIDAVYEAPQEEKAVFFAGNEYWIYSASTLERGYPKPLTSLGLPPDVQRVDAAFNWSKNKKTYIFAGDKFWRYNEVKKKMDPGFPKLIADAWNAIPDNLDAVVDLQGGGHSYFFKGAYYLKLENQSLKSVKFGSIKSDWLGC

[4] = biological target: T4, Matrix metalloproteinase-9 (Homo sapiens, UniProt P14780); assay: Inhibition of human MMP9 up to 100 uM using (7-methoxycoumarin-4-yl) acetyl pro-Leu-Gly-Leu-[3-(2,4-dinitrophenyl)-L-2,3-diamino-propionyl]-Ala-Arg-NH2 as substrate preincubated for 30 mins followed by substrate addition by microplate reader analysis
Collagenase 3 [5] = biological target: T2, Collagenase 3; assay: Inhibition of MMP13 (unknown origin) using (7-methoxycoumarin-4-yl) acetyl pro-Leu-Gly-Leu-[3-(2,4-dinitrophenyl)-L-2,3-diamino-propionyl]-Ala-Arg-NH2 as substrate preincubated for 30 mins followed by substrate addition by microplate reader analysis
[6] = biological target: T3, 72 kDa type IV collagenase; assay: Inhibition of human MMP2 using (7-methoxycoumarin-4-yl) acetyl pro-Leu-Gly-Leu-[3-(2,4-dinitrophenyl)-L-2,3-diamino-propionyl]-Ala-Arg-NH2 as substrate preincubated for 30 mins followed by substrate addition by microplate reader analysis
Target sequence in this assay (P08253 whole entry): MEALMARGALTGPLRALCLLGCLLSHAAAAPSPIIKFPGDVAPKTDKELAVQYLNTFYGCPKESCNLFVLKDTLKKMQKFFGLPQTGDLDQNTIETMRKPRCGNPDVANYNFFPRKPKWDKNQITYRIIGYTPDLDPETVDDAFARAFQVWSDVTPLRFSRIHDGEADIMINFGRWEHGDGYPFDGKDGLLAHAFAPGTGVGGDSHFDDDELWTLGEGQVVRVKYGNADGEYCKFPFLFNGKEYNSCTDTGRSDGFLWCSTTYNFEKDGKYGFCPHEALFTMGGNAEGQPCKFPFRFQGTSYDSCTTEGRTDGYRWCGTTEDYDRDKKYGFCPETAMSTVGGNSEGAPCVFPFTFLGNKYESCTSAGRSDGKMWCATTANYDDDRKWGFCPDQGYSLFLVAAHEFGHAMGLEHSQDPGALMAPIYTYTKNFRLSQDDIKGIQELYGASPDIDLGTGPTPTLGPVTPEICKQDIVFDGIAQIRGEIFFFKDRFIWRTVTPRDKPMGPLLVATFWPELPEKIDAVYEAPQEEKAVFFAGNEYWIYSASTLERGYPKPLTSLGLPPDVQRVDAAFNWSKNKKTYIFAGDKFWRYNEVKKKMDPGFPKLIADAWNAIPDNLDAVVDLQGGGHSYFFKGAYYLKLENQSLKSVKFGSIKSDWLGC

Neutrophil collagenase [7] = biological target: T1, Neutrophil collagenase; assay: Inhibition of MMP8 (unknown origin) using (7-methoxycoumarin-4-yl) acetyl pro-Leu-Gly-Leu-[3-(2,4-dinitrophenyl)-L-2,3-diamino-propionyl]-Ala-Arg-NH2 as substrate preincubated for 30 mins followed by substrate addition by microplate reader analysis
Target sequence in this assay (P22894 whole entry): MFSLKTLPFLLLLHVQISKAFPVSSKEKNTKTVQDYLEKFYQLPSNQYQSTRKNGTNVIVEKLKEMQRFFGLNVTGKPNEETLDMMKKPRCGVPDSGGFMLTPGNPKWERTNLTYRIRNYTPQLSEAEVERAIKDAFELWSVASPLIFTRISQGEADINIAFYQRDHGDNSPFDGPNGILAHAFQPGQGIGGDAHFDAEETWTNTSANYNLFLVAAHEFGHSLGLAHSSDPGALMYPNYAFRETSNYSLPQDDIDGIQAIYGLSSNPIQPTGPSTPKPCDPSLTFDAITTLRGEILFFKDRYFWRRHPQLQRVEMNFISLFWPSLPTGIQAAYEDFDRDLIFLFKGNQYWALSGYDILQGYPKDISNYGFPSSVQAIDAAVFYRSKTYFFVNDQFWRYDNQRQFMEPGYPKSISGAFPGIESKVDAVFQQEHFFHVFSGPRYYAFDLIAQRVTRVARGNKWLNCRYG

[8] = biological target: T4, Matrix metalloproteinase-9; assay: Inhibition of human MMP9 using (7-methoxycoumarin-4-yl) acetyl pro-Leu-Gly-Leu-[3-(2,4-dinitrophenyl)-L-2,3-diamino-propionyl]-Ala-Arg-NH2 as substrate preincubated for 30 mins followed by substrate addition by microplate reader analysis

T4 sequence (P14780 whole entry): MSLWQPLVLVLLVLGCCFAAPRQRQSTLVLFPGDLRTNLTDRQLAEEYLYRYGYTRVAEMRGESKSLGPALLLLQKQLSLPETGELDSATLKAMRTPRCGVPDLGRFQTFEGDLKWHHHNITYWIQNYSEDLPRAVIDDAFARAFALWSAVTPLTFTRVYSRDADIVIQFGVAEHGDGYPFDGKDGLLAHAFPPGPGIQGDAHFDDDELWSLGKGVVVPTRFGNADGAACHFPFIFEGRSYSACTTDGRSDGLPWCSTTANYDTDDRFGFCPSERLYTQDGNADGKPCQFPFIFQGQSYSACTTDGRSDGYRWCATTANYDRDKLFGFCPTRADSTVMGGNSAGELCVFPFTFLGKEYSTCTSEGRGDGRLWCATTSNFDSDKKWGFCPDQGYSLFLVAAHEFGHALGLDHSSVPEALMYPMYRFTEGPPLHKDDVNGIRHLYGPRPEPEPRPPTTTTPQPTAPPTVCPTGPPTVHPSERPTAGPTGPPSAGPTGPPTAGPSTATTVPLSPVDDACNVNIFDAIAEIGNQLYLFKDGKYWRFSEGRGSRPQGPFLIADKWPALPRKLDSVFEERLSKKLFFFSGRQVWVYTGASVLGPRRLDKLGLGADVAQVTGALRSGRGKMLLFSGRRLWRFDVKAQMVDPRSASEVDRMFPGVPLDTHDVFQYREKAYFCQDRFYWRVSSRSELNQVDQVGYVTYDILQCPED

| Structure (SMILES) | inhibition (Neutrophil collagenase [1]) | inhibition (Collagenase 3 [2]) | inhibition [3] | inhibition [4] | IC50 (Collagenase 3 [5]) | IC50 [6] | IC50 (Neutrophil collagenase [7]) | IC50 [8] |
| --- | --- | --- | --- | --- | --- | --- | --- | --- |
| COc1ccc(S(=O)(=O)N(Cc2cccnc2)C(CC(C)C)P(=O)(O)O)cc1 (stereo not given) | inactive | inactive | inactive | inactive | – | – | – | – |
| COc1ccc(S(=O)(=O)N(Cc2ccccc2)C(C(C)C)P(=O)(O)O)cc1 (stereo not given) | inactive | inactive | inactive | inactive | – | – | – | – |
| CC(C)C(NS(=O)(=O)c1ccc(-c2ccc(F)nc2)cc1)P(=O)(O)O (stereo not given) | – | – | – | – | 1030 nM | 628 nM | > 100000 nM | 393 nM |
| CC(C)C(NS(=O)(=O)c1ccc(-c2ccc(OCCF)cc2)cc1)P(=O)(O)O (stereo not given) | – | – | – | – | 2.41 nM | 11.7 nM | – | 18.5 nM |
| Cc1ccc(-c2ccc(S(=O)(=O)NC(C(C)C)P(=O)(O)O)cc2)s1 (stereo not given) | – | – | – | – | > 100000 nM | > 100000 nM | > 100000 nM | > 100000 nM |
| COCc1ccc(-c2ccc(S(=O)(=O)NC(C(C)C)P(=O)(O)O)cc2)s1 (stereo not given) | – | – | – | – | > 100000 nM | > 100000 nM | > 100000 nM | > 100000 nM |
| COc1ccc(-c2ccc(S(=O)(=O)NC(C(C)C)P(=O)(O)O)cc2)cc1 (racemic) | – | – | – | – | 2.17 nM | 9.25 nM | – | 8.85 nM |
| COc1ccc(-c2ccc(S(=O)(=O)N[C@H](CCCCCF)P(=O)(O)O)cc2)cc1 | – | – | – | – | 93.8 nM | 791 nM | 42.2 nM | > 100000 nM |
| CC(C)C(N(Cc1ccccc1)S(=O)(=O)c1ccc(-c2ccc(OCCF)cc2)cc1)P(=O)(O)O (stereo not given) | – | – | – | – | 73.1 nM | 56.3 nM | 83.1 nM | 96.4 nM |
| COc1ccc(-c2ccc(S(=O)(=O)N[C@@H](CCCCCF)P(=O)(O)O)cc2)cc1 | – | – | – | – | 5.37 nM | 6.5 nM | – | 19 nM |
| COc1ccc(S(=O)(=O)N(Cc2cccnc2)C(C(C)C)P(=O)(O)O)cc1 (stereo not given) | inactive | inactive | inactive | inactive | – | – | – | – |
| COc1ccc(S(=O)(=O)N(Cc2ccccc2)C(CC(C)C)P(=O)(O)O)cc1 (stereo not given) | inactive | inactive | inactive | inactive | – | – | – | – |
